Active and inactive are the calls of the source. The rule behind the calls is not given here.
Tested on: GENE-TOX genotoxicity assays, various organisms and cells
Test: GENE-TOX mutagenicity studies
Details: for call: Assay Type: In vivo carcinogenicity studies
[1] = Species/Cell Type: Salmonella typhimurium (one or more of the five standard strains: TA98, TA100, TA1535, TA1537, and TA1538), Assay Type: Histidine reverse gene mutation, Ames assay, Assay Code: SAL+, Evaluation Type: Evaluation A (Pre-1980)
[2] = Species/Cell Type: Nonhuman, Assay Type: Sister-chromatid exchange (SCE) in vitro, Assay Code: SC2+, Evaluation Type: Evaluation B (Post-1980)
[3] = Species/Cell Type: Drosophila melanogaster, Assay Type: Sex-linked recessive lethal gene mutation, Assay Code: SRLT, Evaluation Type: Evaluation A (Pre-1980)
[4] = Species/Cell Type: Human diploid fibroblasts, Assay Type: Unscheduled DNA synthesis (UDS) in vitro, DNA effects, Assay Code: UDH+, Evaluation Type: Evaluation A (Pre-1980)
[5] = Species/Cell Type: Nonhuman, Assay Code: CCG+, Evaluation Type: Evaluation A (Pre-1980)
[6] = Species/Cell Type: Saccharomyces cerevisiae, Assay Type: Mitotic recombination or gene conversion, Assay Code: YEH+/-*, Activation: With metabolic activation, Evaluation Type: Evaluation A (Pre-1980)
[7] = Species/Cell Type: Salmonella typhimurium (one or more of the five standard strains: TA98, TA100, TA1535, TA1537, and TA1538), Assay Type: Histidine reverse gene mutation, Ames assay, Assay Code: SAL-, Evaluation Type: Evaluation A (Pre-1980)
[8] = Species/Cell Type: Human, Assay Type: Sister-chromatid exchange (SCE) in vitro, Assay Code: SC1T, Evaluation Type: Evaluation B (Post-1980)
[9] = Species/Cell Type: Escherichia coli polA (W3119 vs P3478), Assay Type: Rec-assay, DNA effects (bacterial DNA repair), Assay Code: RE1T, Evaluation Type: Evaluation A (Pre-1980)
[10] = Species/Cell Type: Human, Assay Type: Sister-chromatid exchange (SCE) in vitro, Assay Code: SC1+D, Dose Response: With dose response, Evaluation Type: Evaluation B (Post-1980)
[11] = Species/Cell Type: Salmonella typhimurium (one or more of the five standard strains: TA98, TA100, TA1535, TA1537, and TA1538), Assay Type: Histidine reverse gene mutation, Ames assay, Assay Code: SAL+*, Activation: With metabolic activation, Evaluation Type: Evaluation A (Pre-1980)
[12] = Species/Cell Type: Nonhuman, Assay Code: CCGT, Evaluation Type: Evaluation A (Pre-1980)
[13] = Species/Cell Type: Nonhuman, Assay Code: CCG+L, Evaluation Type: Evaluation A (Pre-1980)
[14] = Species/Cell Type: Drosophila melanogaster, Assay Type: Sex-linked recessive lethal gene mutation, Assay Code: SRL+, Evaluation Type: Evaluation A (Pre-1980)
[15] = Species/Cell Type: Saccharomyces cerevisiae, Assay Type: Forward gene mutation, Assay Code: YEF-*, Activation: With metabolic activation, Evaluation Type: Evaluation A (Pre-1980)
[16] = Species/Cell Type: Syrian hamster embryo (SHE) cells, Assay Type: Cell transformation, clonal assay, Assay Code: CTC+, Evaluation Type: Evaluation A (Pre-1980)

COC(=O)COc1ccc(Cl)cc1CSC(=N)N
mutagenic call (Species/Cell Type: Saccharomyces cerevisiae, Assay Type: Reverse gene mutation, Assay Code: YERT, Evaluation Type: Evaluation A (Pre-1980)): no conclusion

CCNC(=O)/C=C(C)/C=C/C=C(C)/C=C/c1c(C)cc(OC)c(C)c1C
mutagenic call (Species/Cell Type: Mouse (C3H/10T1/2) cells, Assay Type: Cell transformation, Assay Code: CTH-, Evaluation Type: Evaluation A (Pre-1980)): inactive; negative

O=S(=O)(O)c1ccc2c(N=Nc3ccccc3)c(O)ccc2c1
mutagenic call (Species/Cell Type: Saccharomyces cerevisiae, Assay Type: Mitotic recombination or gene conversion, Assay Code: YEC-, Evaluation Type: Evaluation A (Pre-1980)): inactive; negative

CCCCN(CCCO)N=O
mutagenic call [1]: active; positive

CC(C)OC(=O)Nc1cccc(Cl)c1
mutagenic call (Species/Cell Type: Hordeum vulgare (barley), Assay Type: Chromosome aberrations, Assay Code: HOC+, Evaluation Type: Evaluation A (Pre-1980)): active; positive | mutagenic call (Species/Cell Type: Mammalian polychromatic erythrocytes, Assay Type: Micronucleus test, chromosome aberrations, Assay Code: MNTT, Evaluation Type: Evaluation A (Pre-1980)): no conclusion | mutagenic call (Species/Cell Type: Mouse, Sex: Male, Assay Type: Sperm morphology, Assay Code: SPI-, Evaluation Type: Evaluation A (Pre-1980)): inactive; negative | mutagenic call [2]: active; positive

C=CC(O)c1ccc2c(c1)OCO2 (centres undefined)
mutagenic call [3]: no conclusion | mutagenic call (Species/Cell Type: Escherichia coli polA (W3119 vs P3478), Assay Type: Rec-assay, DNA effects (bacterial DNA repair), Assay Code: RE1-, Evaluation Type: Evaluation A (Pre-1980)): inactive; negative | mutagenic call [4]: active; positive | call [5]: active; positive | mutagenic call [6]: inactive; positive without activation, negative with activation | mutagenic call [7]: inactive; negative

CC(C)C[C@H](NC(=O)N[C@H](C(=O)N[C@@H](CCC(N)=O)C(=O)N[C@@H](C)C=O)[C@@H]1CCNC(N)=N1)C(=O)O
mutagenic call [8]: no conclusion | mutagenic call (Species/Cell Type: Nonhuman, Assay Type: Sister-chromatid exchange (SCE) in vitro, Assay Code: SC2T, Evaluation Type: Evaluation B (Post-1980)): no conclusion

CC(C)CI
mutagenic call [9]: no conclusion

COc1nn(CSP(=S)(OC)OC)c(=O)s1
mutagenic call (Species/Cell Type: Nonhuman, Assay Type: Sister-chromatid exchange (SCE) in vitro, Assay Code: SC2+D*, Activation: With metabolic activation, Dose Response: With dose response, Evaluation Type: Evaluation B (Post-1980)): active; positive

COc1c2occc2c(OC)c2c(=O)cc(C)oc12
mutagenic call (Species/Cell Type: Human, Assay Type: Sister-chromatid exchange (SCE) in vitro, Assay Code: SC1T, Evaluation Type: Evaluation A (Pre-1980)): no conclusion

CC(=O)NO
mutagenic call (Species/Cell Type: Human lymphocytes or leukocytes, Assay Type: Chromosome aberrations in vitro, Assay Code: CY7-, Evaluation Type: Evaluation A (Pre-1980)): inactive; negative

Cc1ncc(COP(=O)(O)O)c(C)c1O
mutagenic call (Species/Cell Type: Human lymphocytes, Assay Type: Sister-chromatid exchange (SCE) in vitro, Assay Code: SCL+D, Dose Response: With dose response, Evaluation Type: Evaluation B (Post-1980)): active; positive | mutagenic call [10]: active; positive

Cc1cccc2c1ccc1c3c(ccc12)C(=O)CC3
mutagenic call (Species/Cell Type: Salmonella typhimurium (one or more of the five standard strains: TA98, TA100, TA1535, TA1537, and TA1538), Assay Type: Histidine reverse gene mutation, Ames assay, Assay Code: SALT, Evaluation Type: Evaluation A (Pre-1980)): no conclusion

Cc1cc(N=Nc2ccc(S(=O)(=O)O)cc2)c(N)cc1N
mutagenic call [11]: active; positive

Cc1c2ccccc2c(C)c2c1ccc1cc(O)ccc12
mutagenic call (Species/Cell Type: Chinese hamster lung (V79) cells, Assay Type: Forward gene mutation at the HPRT or ouabain locus, Assay Code: V79-*, Activation: With metabolic activation, Evaluation Type: Evaluation A (Pre-1980)): inactive; negative | call [12]: no conclusion

CC(=O)ON(C(C)=O)c1ccc(/C=C\c2ccccc2)cc1
mutagenic call [4]: active; positive | call [13]: active; positive

C1CCCCC1
mutagenic call [7]: inactive; negative | mutagenic call (Species/Cell Type: Syrian hamster embryo (SA7/SHE) cells, Assay Type: Cell transformation, viral enhanced, Assay Code: CT7-, Evaluation Type: Evaluation A (Pre-1980)): inactive; negative

O=c1[nH]c(=O)n([C@H]2C[C@H](O)[C@@H](CO)O2)cc1/C=C/C(F)(F)F
mutagenic call [10]: active; positive

C[C@H](CCC(=O)O)[C@H]1CC[C@H]2[C@@H]3CC[C@@H]4C[C@H](O)CC[C@]4(C)[C@H]3CC[C@]12C
mutagenic call (Species/Cell Type: Fischer rat embryo (RLV/1706) cells, Assay Type: Cell transformation, viral enhanced, Assay Code: CTR+, Evaluation Type: Evaluation A (Pre-1980)): active; positive | mutagenic call (Species/Cell Type: Syrian hamster embryo (SHE) cells, Assay Type: Cell transformation, clonal assay, Assay Code: CTCT, Evaluation Type: Evaluation A (Pre-1980)): no conclusion

ClC1(Cl)C2(Cl)C3(Cl)C4(Cl)C(Cl)(Cl)C5(Cl)C3(Cl)C1(Cl)C5(Cl)C24Cl (centres undefined)
call [5]: active; positive | mutagenic call (Species/Cell Type: Rodents, Sex: Male, Assay Type: Dominant lethal test, Assay Code: DLT-, Evaluation Type: Evaluation A (Pre-1980)): inactive; negative

CCn1cc(C(=O)O)c(=O)c2ccc(C)nc21
mutagenic call (Species/Cell Type: Bacillus subtilis (H17 vs M45T), Assay Type: Rec-assay, spot test, DNA effects (bacterial DNA repair), Assay Code: REX+, Evaluation Type: Evaluation A (Pre-1980)): active; positive | mutagenic call [14]: active; positive | mutagenic call (Species/Cell Type: Escherichia coli polA (W3119 vs P3478), Assay Type: Rec-assay, DNA effects (bacterial DNA repair), Assay Code: RE1+, Evaluation Type: Evaluation A (Pre-1980)): active; positive | mutagenic call (Species/Cell Type: Human lymphocytes, Assay Type: Sister-chromatid exchange (SCE) in vivo, Assay Code: SCY+, Evaluation Type: Evaluation B (Post-1980)): active; positive

O=C1c2cc(O)cc(O)c2C(=O)c2c1cc1c(c2O)[C@@H]2C=CO[C@@H]2O1
mutagenic call [11]: active; positive

CC(=O)[O-].CC(=O)[O-].[Co+2]
mutagenic call (Species/Cell Type: Syrian hamster embryo (SA7/SHE) cells, Assay Type: Cell transformation, viral enhanced, Assay Code: CT7+, Evaluation Type: Evaluation A (Pre-1980)): active; positive

O=C1CCc2c1ccc1c2ccc2ccccc21
mutagenic call (Species/Cell Type: Human lymphocytes, Assay Type: Sister-chromatid exchange (SCE) in vitro, Assay Code: SCLT, Evaluation Type: Evaluation B (Post-1980)): no conclusion | mutagenic call [8]: no conclusion | mutagenic call [11]: active; positive

O=[N+]([O-])c1c(O)ccc2ccccc12
mutagenic call [1]: active; positive

CCNCC
mutagenic call [15]: inactive; negative

COc1cc(N=Nc2ccccc2)ccc1N
mutagenic call (Species/Cell Type: Escherichia coli polA (W3110 vs P3478), Assay Type: Rec-assay, DNA effects (bacterial DNA repair), Assay Code: RE2+, Evaluation Type: Evaluation A (Pre-1980)): active; positive | mutagenic call [9]: no conclusion | call [13]: active; positive | mutagenic call [6]: inactive; positive without activation, negative with activation | mutagenic call [11]: active; positive | mutagenic call (Species/Cell Type: Salmonella typhimurium, Assay Type: Forward and reverse gene mutation, host-mediated assay, Assay Code: HMA+, Evaluation Type: Evaluation A (Pre-1980)): active; positive | mutagenic call [16]: active; positive

CC(=O)Nc1ccc(-c2ccc(NO)cc2)cc1
mutagenic call (Species/Cell Type: Chinese hamster ovary (CHO) cells, Assay Type: Forward gene mutation at the HPRT locus, Assay Code: CHO+, Evaluation Type: Evaluation B (Post-1980)): active; positive

CC1CCCC(C)N1N=O (centres undefined)
mutagenic call (Species/Cell Type: Drosophila melanogaster, Assay Type: Aneuploidy, partial sex chromosome loss, chromosome aberrations, Assay Code: DAPT, Evaluation Type: Evaluation A (Pre-1980)): no conclusion | mutagenic call (Species/Cell Type: Drosophila melanogaster, Assay Type: Aneuploidy, whole sex chromosome loss, chromosome aberrations, Assay Code: DACT, Evaluation Type: Evaluation A (Pre-1980)): no conclusion | mutagenic call [3]: no conclusion | call [12]: no conclusion | mutagenic call [15]: inactive; negative | mutagenic call (Species/Cell Type: Saccharomyces cerevisiae, Assay Type: Reverse gene mutation, Assay Code: YER+*, Activation: With metabolic activation, Evaluation Type: Evaluation A (Pre-1980)): active; positive

Cc1ccc2ccc3c4ccccc4c(C)c4ccc1c2c43
mutagenic call [14]: active; positive

Cc1ccc2cc3ccc4ccccc4c3cc2c1
mutagenic call [2]: active; positive | mutagenic call [11]: active; positive | mutagenic call [16]: active; positive

Source: PubChem BioAssay AID1259408 (Genetic Toxicology Data Bank (GENE-TOX), 2018)
